This is an account of results in patent US20250255889A1, “METHODS FOR TREATMENT SELECTION FOR CHRONIC LYMPHOCYTIC LEUKEMIA (CLL)” (The Broad Institute, Inc., priority 2022, published 2025).

In this assay the test system is primary CLL samples (CD19+ and CD5+ cells). In words: High-throughput dynamic BH3 profiling (HT-DBP): drug-induced apoptotic priming (delta priming), cytochrome c release after BH3 peptide. It counts as cell-based, human. As to the method:
By “delta priming” is meant the difference in priming of a cell for apoptosis measured in the presence of an agent for treating chronic lymphocytic leukemia relative to priming of the cell in the presence of an inert carrier. In embodiments, the inert carrier is DMSO.
Dynamic BH3 Profiling Dynamic BH3 profiling (DBP) is a drug screening assay that measures the relative priming of cells in a biological sample for cell death by apoptosis in the presence of a specific compound and/or a pro-apoptotic peptide. By “Dynamic BH3 profiling” is meant measuring drug-induced changes in mitochondrial apoptotic priming. Mitochondrial apoptotic priming is a measure of how close to the apoptotic threshold a cell is. A highly primed cell has relatively less anti-apoptotic binding site availability and is closer to the apoptotic threshold than a poorly primed cell, which has more anti-apoptotic availability to buffer an apoptotic assault and is further from the apoptotic threshold. BH3 peptides derived from the BH3 domain of pro-apoptotic BH3-only proteins provoke a response from viable mitochondria. Cytochrome c released from the mitochondria after a short incubation with BH3 peptide is used as a surrogate for priming. In general, the more sensitive a mitochondrion is to a BH3 peptide, the more primed it is. A drug treatment that enhances priming will cause mitochondria to undergo MOMP more easily when incubated with a fixed concentration of a promiscuously binding BH3 peptide, such as BIM BH3 peptide, compared to control-treated cells. See, for example, Potter, D. S. & Letai, A. To prime, or not to prime: that is the question. Cold Spring Harb. Symp. Quant. Biol. 81, 131-140 (2016); Montero, J. et al. Drug-induced death signaling strategy rapidly predicts cancer response to chemotherapy. Cell 160, 977-989 (2015); Daniels, V. W. et al. Metabolic perturbations sensitize triple-negative breast cancers to apoptosis induced by BH3 mimetics. Sci.
Dynamic BH3 profiling and peptides for use therein are described, for example, in Certo, et al., “Mitochondria primed by death signals determine cellular addiction to antiapoptotic BCL-2 family members,” Cancer Cell, 9:351-365 (2006); and in Foight, et al. “Designed BH3 Peptides with High Affinity and Specificity for Targeting Mcl-1 in Cells,” ACS Chemical Biology, 9:1962-1968 (2014), the disclosures of which are incorporated herein by reference in their entireties for all purposes. The DBP assay enables one to compare the response of a patient tumor sample to a specific drug relative to other drugs and relative to an inert control (e.g., DMSO).
To address the challenge of selecting a proper treatment for a chronic lymphocytic leukemia, experiments were undertaken to optimize high-throughput dynamic BH3 profiling (HT-DBP) for evaluation of the drug sensitivities of CLL samples (FIGS. 1, 13, 5A, 5B, 6A, 6B, and 7A-7C).

[1] abbreviates: peptide PUMA 1 uM, feature EC-m2.
Setting [2] is: peptide PUMA 1 uM, feature loss_6q21.
Where [3] appears, read: peptide PUMA 1 uM, feature loss_7p22.2.
[4] abbreviates: peptide MS1 2.5 uM, feature ITIH2.
[5] abbreviates: peptide BIM 0.01 uM, feature FBXW7.
Where [6] appears, read: peptide BIM 0.01 uM, feature gain_19p13.3.

Take `Cc1c(-c2ccc(N3CCc4cccc(C(=O)Nc5nc6ccccc6s5)c4C3)nc2C(=O)O)cnn1CC12CC3CC(CC(C3)C1)C2` [A-1331852]: the direction result is, setting by setting: (Feature EC-m2) “Resistant”; (peptide BAD 0.3 uM, feature CNOT3) “Sensitive”; (peptide BIM 0.01 uM, feature CARD11) “Resistant”; (peptide BIM 0.01 uM, feature EC-u2) “Sensitive”; (peptide BIM 0.01 uM, feature MYD88) “Resistant”; (peptide PUMA 1 uM, feature CNOT3) “Sensitive”. For the same compound, the direction entry was “Resistant” under setting [1] and “Resistant” under setting [2].

On to `Cc1c2c(nn1C)CSCc1cc(n(C)n1)CSc1cc(c3ccccc3c1)OCCCc1c(C(=O)O)n(C)c3c-2c(Cl)ccc13` [AZD5991], for which the direction result (Feature EC-i) is listed as “Sensitive”; the direction result (Feature loss_3p13) was “Sensitive”; the direction result (peptide BAD 0.3 uM, feature EC-i) is recorded as “Sensitive”; the direction entry (peptide BAD 0.3 uM, feature POT1) was “Sensitive”; the direction entry (peptide BAD 0.3 uM, feature loss_1q42.13) is “Sensitive”; the direction result (peptide BAD 0.3 uM, feature loss_7p22.2) was “Sensitive”. In addition, the direction entry (peptide BAD 0.3 uM, feature loss_14q32.12) is given as “Sensitive”; the direction result (peptide BAD 0.3 uM, feature loss_16p11.2) is given as “Sensitive”; the direction result (peptide BIM 0.01 uM, feature ANK1) is “Sensitive”; the direction result (peptide BIM 0.01 uM, feature loss_1p36.11) is reported as “Sensitive”; the direction result (peptide BIM 0.01 uM, feature loss_3p13) is reported as “Sensitive”; the direction entry (peptide BIM 0.01 uM, feature loss_15q26.1) is on record as “Sensitive”. Also, the direction result is “Sensitive” (peptide BIM 0.01 uM, feature loss_18q21.2); “Sensitive” (peptide MS1 2.5 uM, feature CNOT3); “Sensitive” (peptide PUMA 1 uM, feature BIRC3); “Sensitive” (peptide PUMA 1 uM, feature EC-i); “Sensitive” (peptide PUMA 1 uM, feature loss_1q42.13); “Sensitive” under setting [3]. Further, the direction entry is on record as “Sensitive” (peptide PUMA 1 uM, feature loss_9p21.3); “Sensitive” (peptide PUMA 1 uM, feature loss_16p11.2); “Sensitive” (peptide PUMA 1 uM, feature loss_17q11.2).

As to `COc1ccc(-c2ccc3c(N4CCOC[C@@H]4C)nc(N4CCOC[C@@H]4C)nc3n2)cc1CO` [AZD8055], the direction entry is, setting by setting: (peptide MS1 2.5 uM, feature IGLV321_R110) “Resistant”; (peptide MS1 2.5 uM, feature NOTCH1) “Resistant”; (peptide MS1 2.5 uM, feature RPS15) “Resistant”; (peptide MS1 2.5 uM, feature loss_1p36.11) “Resistant”; (peptide MS1 2.5 uM, feature loss_3p13) “Resistant”; (peptide MS1 2.5 uM, feature loss_6q) “Resistant”. For the same compound, where the note is “peptide MS1 2.5 uM, feature loss_18q21.2”, the direction entry is given as “Resistant”.

As for `CN(C)Cc1c(C(=O)NCCOc2ccc(C(=O)NO)cc2)oc2ccccc12` [Abexinostat], the drug-induced apoptotic priming result (across CLL subtypes, 65 primary CLL samples, 20 hours drug) is reported as “high priming”. Besides, the “efficacy by DBP response” value (cases where patients would be likely resistant to Nutlin 3, MK-2206 and Zanubrutinib) is on record as “effective”. The direction entry is recorded as “Sensitive” (peptide BAD 0.3 uM, feature EC-m2); “Sensitive” (peptide BIM 0.01 uM, feature CNOT3); “Sensitive” (peptide BIM 0.01 uM, feature EC-m2); “Sensitive” (peptide BIM 0.01 uM, feature loss_17q23.1); “Sensitive” (peptide BIM 0.01 uM, feature priortrt_Post); “Sensitive” (peptide MS1 2.5 uM, feature FBXW7). Further, the direction result is, setting by setting: under setting [4], “Sensitive”; (peptide MS1 2.5 uM, feature priortrt_Post) “Sensitive”; under setting [1], “Sensitive”; under setting [2], “Sensitive”; (peptide PUMA 1 uM, feature loss_17q23.1) “Sensitive”.

For the compound `CC(C)c1c(C(=O)Nc2ccccc2)c(-c2ccccc2)c(-c2ccc(F)cc2)n1CC[C@@H](O)C[C@@H](O)CC(=O)O` [Atorvastatin], the direction entry runs as follows: (peptide BAD 0.3 uM, feature EC-u1) “Sensitive”; (peptide BAD 0.3 uM, feature FBXW7) “Sensitive”; (peptide BAD 0.3 uM, feature M-CLL) “Resistant”; (peptide BAD 0.3 uM, feature RFX7) “Sensitive”; (peptide BAD 0.3 uM, feature U-CLL) “Sensitive”; (peptide BAD 0.3 uM, feature ZMYM3) “Sensitive”. Further, the direction result is recorded as “Sensitive” (peptide BAD 0.3 uM, feature gain_19p13.3); “Resistant” (peptide BAD 0.3 uM, feature m-CLL); “Sensitive” (peptide BAD 0.3 uM, feature n-CLL); “Resistant” (peptide BIM 0.01 uM, feature EC-u1); “Resistant” under setting [5]; “Resistant” (peptide BIM 0.01 uM, feature RFX7). For the same compound, the direction entry (peptide BIM 0.01 uM, feature ZMYM3) was “Resistant”; the direction entry under setting [6] was “Resistant”; the direction entry (peptide BIM 0.01 uM, feature loss_2q31.1) was “Resistant”; the direction result (peptide BIM 0.01 uM, feature loss_10p12.2) is listed as “Resistant”; the direction result (peptide BIM 0.01 uM, feature loss_10q24.2) is given as “Resistant”; the direction entry (peptide BIM 0.01 uM, feature n-CLL) is “Resistant”. In addition, the direction result (peptide MS1 2.5 uM, feature RFX7) is “Resistant”; the direction result (peptide MS1 2.5 uM, feature ZMYM3) was “Resistant”; the direction entry (peptide MS1 2.5 uM, feature loss_2q31.1) is “Resistant”; the direction result (peptide MS1 2.5 uM, feature loss_10p12.2) is “Resistant”; the direction entry (peptide MS1 2.5 uM, feature loss_10q24.2) is “Resistant”; the direction result (peptide MS1 2.5 uM, feature loss_11q22.3) is given as “Resistant”. The direction entry (peptide MS1 2.5 uM, feature n-CLL) is on record as “Resistant”; the direction result (peptide PUMA 1 uM, feature FBXW7) is recorded as “Resistant”; the direction result (peptide PUMA 1 uM, feature RFX7) is listed as “Resistant”; the direction result (peptide PUMA 1 uM, feature ZMYM3) was “Resistant”; the direction result (peptide PUMA 1 uM, feature gain_16p11.2) is “Resistant”; the direction result (peptide PUMA 1 uM, feature loss_2q31.1) is reported as “Resistant”. For the same compound, the direction entry was “Resistant” under setting [3] and “Resistant” (peptide PUMA 1 uM, feature loss_10p12.2).

Consider `Nc1ncn([C@@H]2O[C@H](CO)[C@@H](O)[C@H]2O)c(=O)n1` [Azacitidine], for which the direction result by setting is: (Feature CARD11) “Sensitive”; (peptide BAD 0.3 uM, feature CARD11) “Sensitive”; (peptide BAD 0.3 uM, feature MYD88) “Sensitive”; (peptide BAD 0.3 uM, feature loss_19p13.11) “Sensitive”; (peptide BIM 0.01 uM, feature BIRC3) “Resistant”; under setting [5], “Resistant”. The direction entry is listed as “Resistant” (peptide BIM 0.01 uM, feature ITIH2); “Resistant” under setting [6]; “Resistant” (peptide BIM 0.01 uM, feature loss_9p21.3); “Resistant” (peptide BIM 0.01 uM, feature loss_17q11.2); “Sensitive” (peptide MS1 2.5 uM, feature BIRC3); “Sensitive” under setting [4]. Further, the direction entry is reported as “Sensitive” (peptide MS1 2.5 uM, feature loss_9p21.3); “Sensitive” (peptide MS1 2.5 uM, feature loss_17q11.2); “Sensitive” (peptide MS1 2.5 uM, feature loss_19p13.11); “Sensitive” (peptide PUMA 1 uM, feature CARD11).
